Entries after “also recorded” stand apart in the source; their conditions may differ. One block for each compound: values may come before it.
Columns and labels:
[1] = test system: T/Bra::GFP mouse gastruloids; assay: Mouse gastruloid assay, T/Bra::GFP reporter line; format: cell-based; conditions: for adverse effects on reporter gene expression (words): mouse system, up to the highest concentration levels
mouse gastruloids = assay: Mouse gastruloid assay, both lines or line not specified; format: cell-based; conditions: for mouse Gastruloid LOAEL: lowest observable adverse effect level; for overall outcome in the mouse gastruloid model: summary statements
[2] = test system: differentiation of mouse embryonic stem cells (ES-D3) into beating cardiomyocytes; assay: Mouse embryonic stem cell test; format: cell-based; conditions: for mEST ID50: half maximal inhibitory concentration of cardiomyocyte differentiation
hiPSC-derived EBs = assay: Human 3D in vitro model, hiPSC-derived embryoid bodies; format: cell-based; conditions: threshold concentration where 20 % of teratogenicity was detected by differential expression
rats = conditions: read-out: rat in vivo LOAEL Cmax; maximum plasma concentration at LOAEL; cited from earlier work
rabbits = conditions: cited from earlier work
[3] = EMA ICH S5 (R3) guidelines; cited from earlier work
[4] = test system: RUES2-GLR human gastruloids; assay: Human gastruloid assay, RUES2-GLR line; conditions: for Human Gastruloid LOAEL: lowest observable adverse effect level; for overall outcome in the human gastruloid model: summary statements; for adverse effects on reporter gene expression (words): up to the highest concentration levels
[5] = test system: E14Tg2A mouse gastruloids; assay: Mouse gastruloid assay, E14Tg2A line; format: cell-based
plasma protein = conditions: cited from earlier work; for free fractions of unbound compound: human therapeutic concentrations

SMILES: COc1ccccc1Oc1c(NS(=O)(=O)c2ccc(C(C)(C)C)cc2)nc(-c2ncccn2)nc1OCCO [Bosentan]
morphology vs controls ([1]; 4 μM and 8 μM): larger and more elongated than controls | GFP expression ([1]; cultured in the presence of bosentan (4-18 μM)): robust GFP expression that was localised to the pole of the elongations | size and morphogenesis vs controls (mouse gastruloids; 4–18 μM, mouse gastruloids): slightly larger than controls, but did not appear to be defective in morphogenesis | mEST prediction [2]: false negative | mEST ID50 [2]: 68.2 µM | hiPSC- derived EBs TC20 (hiPSC-derived EBs): 13 µM | Cmax (rats): 30 µM | effects in rabbits in vivo (rabbits): no effects | Teratogenicity classification [3]: Positive | germ layer representation and axial elongation ([4]; 4 μM): maintain representation of all three germ layers and axial elongation morphogenesis | size vs DMSO ([4]; 4 μM): marginally smaller than DMSO-treated gastruloids | SOX17 expression ([4]; 18 μM): lose expression of SOX17 | human gastruloids showing low levels of SOX17 expression, on average ([4]; 18 μM, 72 h, vehicle controls 88 %): 33% | Human Gastruloid LOAEL ([4]; 72 h): 18 µM | overall outcome in the human gastruloid model [4]: potentially teratogenic

SMILES: CC(C)Cc1ccc(C(C)C(=O)O)cc1 (centres unmarked) [Ibuprofen]
GFP expression ([1]; all ibuprofen treatments tested (63-250 μM)): marked increase in GFP expression | growth and morphology vs vehicle-only controls (mouse gastruloids; 63−250 μM, 0.12 % DMSO control): no consistent effect on growth or morphology | mouse Gastruloid LOAEL (mouse gastruloids; 120 h): 63 µM | mouse Gastruloid LOAEL (mouse gastruloids; 120 h, listed as ibuprofen): 63 µM | overall outcome in the mouse gastruloid model (mouse gastruloids): adverse effects on gene expression | mEST prediction [2]: negative | hiPSC- derived EBs TC20 (hiPSC-derived EBs): 855 µM | Cmax (rats): 1600 µM | effects in rabbits in vivo (rabbits): no effects | SOX2 expression vs vehicle-only controls ([4]; 63 μM): marginally elevated | size and circularity ([4]; 63 μM and 250 μM): reduced size and increased circularity | Human Gastruloid LOAEL ([4]; 72 h): 63 µM

effect on size ([4]; 63 μM and 1 mM): minimal effects of increased size
SMILES: CC1(C)S[C@@H]2[C@H](NC(=O)Cc3ccccc3)C(=O)N2[C@H]1C(=O)O [Penicillin G]
morphological changes vs control ([5]; 63 μM, 1 mM and 2 mM, water control): small morphological changes resulting in slightly larger, more elongated or less circular gastruloids | adverse effects on reporter gene expression (words) ([1]; listed as Penicillin): No observable adverse effects on reporter gene expression | adverse effects on reporter gene expression (words) ([1]; listed as penicillin G): did not cause any adverse effects on reporter gene expression | adverse effects on reporter gene expression (words) ([4]; human system, listed as Penicillin): No observable adverse effects on reporter gene expression | adverse effects on reporter gene expression (words) ([4]; human system, listed as penicillin G): did not cause any adverse effects on reporter gene expression

SMILES: O=C1NC(=O)C(c2ccccc2)(c2ccccc2)N1 [Phenytoin]
size and morphology vs vehicle-only controls ([5]; 1−20 μM, 0.1 % DMSO control): not significantly different compared to the vehicle-only controls in terms of size and morphology | size and circularity ([1]; 20 μM): significantly smaller and more circular | T/Bra::GFP expression ([1]; > 5 μM): negatively correlated with increasing concentrations of phenytoin | overall outcome in the mouse gastruloid model (mouse gastruloids): adverse effects on gene expression | mEST ID50 [2]: 0.39 µM | hiPSC- derived EBs TC20 (hiPSC-derived EBs): < 8 µM | Cmax (rats): 106 µM | Teratogenicity classification [3]: Positive | plasma protein binding (plasma protein): 90% | free fractions of unbound compound (plasma protein): 3 to 9 µM | area ([4]; 20 μM, One-Way ANOVA α = 0.05): significantly reduced area | proportions and patterns of gene expression ([4]; 1−20 μM): maintained proportions and patterns of gene expression that were comparable to controls | overall outcome in the human gastruloid model [4]: falls below the limit of detectable effect

SMILES: CC1=C(/C=C/C(C)=C/C=C/C(C)=C/C(=O)O)C(C)(C)CCC1 [Retinoic Acid, All-trans retinoic acid]
T/Bra::GFP expression ([1]; all ATRA treatments (0.4-100 nM), 120 h): apparent loss of T/Bra::GFP expression | effect on axial extension (mouse gastruloids; 0.4 nM, 120 h, both lines): significant inhibition of axial extension | effect on size and shape (mouse gastruloids; 33 nM, 100 nM, 120 h, both lines): drastically reduced size, and gastruloids assumed a spherical shape without any axial elongation | dosages likely to be cytotoxic or cytostatic in the mouse system (mouse gastruloids; 120 h): > 0.4 nM | mouse Gastruloid LOAEL (mouse gastruloids; 120 h): 0.0004 µM | overall outcome in the mouse gastruloid model (mouse gastruloids): similarly teratogenic; also recorded: adverse morphological effects | mEST ID50 [2]: 0.0037 µM | mEST ID50 ([2]; listed as ATRA): 0.003 µM | Cmax (rats): 1 µM | Teratogenicity classification [3]: Positive | germ layer representation and axial elongation ([4]; 0.4 nM, 72 h): maintain an equivalent representation of the three germ layers and underwent partial axial elongation | size and circularity vs controls ([4]; 0.4 nM, 72 h): significantly smaller and more circular than controls | axial extension and SOX2 expression ([4]; 33 nM, 72 h): completely inhibited axial extension and promoted the over-expression of SOX2 | BRA expression ([4]; 33 nM, 72 h, three replicates): no detectable BRA expression | human gastruloids expressing SOX17 at low levels, on average ([4]; 33 nM, 72 h, DMSO controls 88 %): 42% | Human Gastruloid LOAEL ([4]; 72 h): 0.0004 µM | overall outcome in the human gastruloid model [4]: similarly teratogenic

SMILES: O=C1CCC(N2C(=O)c3ccccc3C2=O)C(=O)N1 (centres unmarked) [Thalidomide]
GFP expression ([1]; increasing concentrations (100 μM)): reduced GFP expression | size and morphology (mouse gastruloids; 0.4−100 μM, both lines): not significantly altered in either size or morphology | overall outcome in the mouse gastruloid model (mouse gastruloids): adverse effects on gene expression | mEST prediction [2]: false negative | mEST inhibition of cardiomyocytes ([2]; concentrations up to 2 mM): did not show any inhibition of cardiomyocytes | hiPSC- derived EBs TC20 (hiPSC-derived EBs): < 0.1 µM | Cmax (rats): 19 µM | Teratogenicity classification [3]: Positive | SOX2 expression ([4]; 0.4 μM and 100 μM): clearly increased SOX2 expression | gastruloid size ([4]; 0.4 μM and 100 μM): significant decreases in gastruloid size | Human Gastruloid LOAEL ([4]; 72 h): 0.4 µM | overall outcome in the human gastruloid model [4]: potentially teratogenic

SMILES: CCCC(CCC)C(=O)O [Valproic Acid]
GFP expression ([1]; 4 μM): maintained localised GFP expression | size, elongation and GFP expression ([1]; concentrations higher than 4 μM): smaller gastruloids, impaired elongation and a loss of GFP expression | tolerability (mouse gastruloids; 4 μM, mouse gastruloids): fairly well tolerated | toxicity judged from decrease in gastruloid size (mouse gastruloids; 1 mM, mouse system): seem to induce toxicity | effect on shape and size (mouse gastruloids; concentrations higher than 333 μM, mouse gastruloids): clearly spherical mouse gastruloids | mouse Gastruloid LOAEL (mouse gastruloids; 120 h): 333 µM | overall outcome in the mouse gastruloid model (mouse gastruloids): similarly teratogenic; also recorded: adverse morphological effects | mEST ID50 [2]: 589 µM | hiPSC- derived EBs TC20 (hiPSC-derived EBs): 85 µM | Cmax (rats): 1600 µM | Teratogenicity classification [3]: Positive | plasma protein binding (plasma protein): ≥ 90% | free fractions of unbound compound (plasma protein): 0.3−0.5 mM | effect on size ([4]; 4 μM, human gastruloids): decrease in size | tolerability ([4]; 4 μM, human gastruloids): fairly well tolerated | SOX2 and BRA reporter expression vs 0.2 % DMSO controls ([4]; 333 μM): very low SOX2 expression and elevated BRA expression | axial elongation morphogenesis ([4]; 333 μM): failed to undergo axial elongation morphogenesis | toxicity judged from decrease in gastruloid size ([4]; 1 mM, human system): seem to induce toxicity | Human Gastruloid LOAEL ([4]; 72 h): 333 µM | overall outcome in the human gastruloid model [4]: similarly teratogenic

Source: paper PMC8522962 (Reproductive Toxicology (Elmsford, N.y.), 2021)
